Converted amounts (≈) assume the structure as drawn.
Legend:
Format in all cases: functional
Acinetobacter baumannii [1] = assay: Antibacterial activity against Acinetobacter baumannii GDW786 assessed as growth inhibition
Pseudomonas aeruginosa [2] = assay: Antibacterial activity against Pseudomonas aeruginosa GDW790 assessed as growth inhibition
Klebsiella pneumoniae [3] = assay: Antibacterial activity against Klebsiella pneumoniae by microdilution checkerboard method in presence of tetracycline
Acinetobacter baumannii [4] = assay: Antibacterial activity against Acinetobacter baumannii B00919434 assessed as growth inhibition
Staphylococcus aureus [5] = assay: Antibacterial activity against Staphylococcus aureus ATCC 29213 assessed as growth inhibition
Pseudomonas aeruginosa [6] = assay: Antibacterial activity against Pseudomonas aeruginosa GDW788 assessed as growth inhibition
Enterococcus faecalis [7] = assay: Antibacterial activity against Enterococcus faecalis ATCC 51299 assessed as growth inhibition
Enterococcus faecalis [8] = assay: Antibacterial activity against Enterococcus faecalis ATCC 29212 by microdilution checkerboard method in presence of tetracycline
Klebsiella pneumoniae [9] = assay: Antibacterial activity against Klebsiella pneumoniae GDW917 assessed as growth inhibition
Acinetobacter baumannii [10] = assay: Antibacterial activity against Acinetobacter baumannii ATCC 17978 by microdilution checkerboard method in presence of tetracycline
Pseudomonas aeruginosa [11] = assay: Antibacterial activity against Pseudomonas aeruginosa GDW789 assessed as growth inhibition
Acinetobacter baumannii [12] = assay: Antibacterial activity against Acinetobacter baumannii ATCC 17978 assessed as growth inhibition
Escherichia coli [13] = assay: Antibacterial activity against Escherichia coli GDW918 assessed as growth inhibition
Staphylococcus aureus [14] = assay: Antibacterial activity against Staphylococcus aureus CMRSA7 assessed as growth inhibition
Escherichia coli [15] = assay: Antibacterial activity against Escherichia coli […] by microdilution checkerboard method in presence of tetracycline
Escherichia coli [16] = assay: Antibacterial activity against Escherichia coli ATCC 25922 assessed as growth inhibition
Pseudomonas aeruginosa [17] = assay: Antibacterial activity against Pseudomonas aeruginosa GDW787 assessed as growth inhibition
Pseudomonas aeruginosa [18] = assay: Antibacterial activity against Pseudomonas aeruginosa PAO1 assessed as growth inhibition
Staphylococcus aureus [19] = assay: Antibacterial activity against Staphylococcus aureus ATCC 29213 by microdilution checkerboard method in presence of tetracycline
Escherichia coli [20] = assay: Antibacterial activity against Escherichia coli GDW916 assessed as growth inhibition
Acinetobacter baumannii [21] = assay: Antibacterial activity against Acinetobacter baumannii mrH5 assessed as growth inhibition
Acinetobacter baumannii [22] = assay: Antibacterial activity against Acinetobacter baumannii mrH4 by microdilution checkerboard method in presence of tetracycline
Enterococcus faecalis [23] = assay: Antibacterial activity against Enterococcus faecalis ATCC 29212 assessed as growth inhibition
Escherichia coli [24] = assay: Antibacterial activity against Escherichia coli GDW914 assessed as growth inhibition
Acinetobacter baumannii [25] = assay: Antibacterial activity against Acinetobacter baumannii mrH4 assessed as growth inhibition
Staphylococcus aureus [26] = assay: Antibacterial activity against Staphylococcus aureus CMRSA6 assessed as growth inhibition
Klebsiella pneumoniae [27] = assay: Antibacterial activity against Klebsiella pneumoniae GDW915 assessed as growth inhibition
Acinetobacter baumannii [28] = assay: Antibacterial activity against Acinetobacter baumannii B00636584 assessed as growth inhibition
Acinetobacter baumannii [29] = assay: Antibacterial activity against Acinetobacter baumannii mrH3 assessed as growth inhibition
Pseudomonas aeruginosa [30] = assay: Antibacterial activity against Pseudomonas aeruginosa PAO1 by microdilution checkerboard method in presence of tetracycline
Staphylococcus aureus [31] = assay: Antibacterial activity against Staphylococcus aureus CMRSA5 assessed as growth inhibition
Acinetobacter baumannii [32] = assay: Antibacterial activity against Acinetobacter baumannii GDW787 assessed as growth inhibition

C/C=C\C=C\[C@@H]1O[C@](O)([C@H](CC)C(=O)NC/C=C/C=C(\C)[C@@H](OC)[C@@H](C)C(O)[C@@H](O)/C=C/C=C/C=C/C=C(\C)C(=O)c2c(O)ccn(C)c2=O)C[C@H](O)C1(C)C (some centres not stated)
MIC (Acinetobacter baumannii [1]): 128 µg/mL (≈ 164 µM) | MIC (Pseudomonas aeruginosa [2]): 128 µg/mL (≈ 164 µM) | fractional inhibitory concentration index (FICI) (Klebsiella pneumoniae [3]): 0.5 | MIC (Acinetobacter baumannii [4]): 8 µg/mL (≈ 10.3 µM) | MIC (Staphylococcus aureus [5]): 32 µg/mL (≈ 41.1 µM) | MIC (Pseudomonas aeruginosa [6]): 128 µg/mL (≈ 164 µM) | MIC (Enterococcus faecalis [7]): 64 µg/mL (≈ 82.2 µM) | fractional inhibitory concentration index (FICI) (Enterococcus faecalis [8]): 0.375 | MIC (Klebsiella pneumoniae [9]): 128 µg/mL (≈ 164 µM) | fractional inhibitory concentration index (FICI) (Acinetobacter baumannii [10]): 2 | MIC (Pseudomonas aeruginosa [11]): > 128 µg/mL | MIC (Acinetobacter baumannii [12]): 32 µg/mL (≈ 41.1 µM) | MIC (Escherichia coli [13]): 128 µg/mL (≈ 164 µM) | MIC (Staphylococcus aureus [14]): > 128 µg/mL | fractional inhibitory concentration index (FICI) (Escherichia coli [15]): 2 | MIC (Escherichia coli [16]): 64 µg/mL (≈ 82.2 µM) | MIC (Pseudomonas aeruginosa [17]): 128 µg/mL (≈ 164 µM) | MIC (Pseudomonas aeruginosa [18]): 128 µg/mL (≈ 164 µM) | fractional inhibitory concentration index (FICI) (Staphylococcus aureus [19]): 2 | MIC (Escherichia coli [20]): 128 µg/mL (≈ 164 µM) | MIC (Acinetobacter baumannii [21]): 8 µg/mL (≈ 10.3 µM) | fractional inhibitory concentration index (FICI) (Acinetobacter baumannii [22]): 0.25 | MIC (Enterococcus faecalis [23]): 16 µg/mL (≈ 20.5 µM) | MIC (Escherichia coli [24]): 128 µg/mL (≈ 164 µM) | MIC (Acinetobacter baumannii [25]): 8 µg/mL (≈ 10.3 µM) | MIC (Staphylococcus aureus [26]): > 128 µg/mL | MIC (Klebsiella pneumoniae [27]): > 128 µg/mL | MIC (Acinetobacter baumannii [28]): 16 µg/mL (≈ 20.5 µM) | MIC (Acinetobacter baumannii [29]): 16 µg/mL (≈ 20.5 µM) | fractional inhibitory concentration index (FICI) (Pseudomonas aeruginosa [30]): 2 | MIC (Staphylococcus aureus [31]): > 128 µg/mL | MIC (Acinetobacter baumannii [32]): 128 µg/mL (≈ 164 µM)
